Tests used:
[1] = Oral bioavailability and pharmacokinetics in the rat; format: in vivo
Experimental: The oral availability of ramoplanin was assessed by comparing a 1000 mg/kg oral dose with a 5 mg/kg intravenous dose in the rat. […] The mean absorption time was 3.4 hours. […] Terminal elimination half-lives were 3.5 and 5.9 hours for the intravenous and oral doses, respectively. […] In intravenously treated rats, the amount excreted in urine represented less than 0.01% of the administered dose.

[2] = Bioavailability and serum pharmacokinetics in Beagle dogs; format: in vivo
Experimental: The bioavailability of a 300 mg/kg ramoplanin oral gelatin capsule and the serum pharmacokinetics of a 5 mg/kg intravenous dose were examined in four male Beagle dogs.

[3] = Single dose study in healthy male volunteers: absorption and fecal recovery; format: in vivo, human
Experimental: The absorption, tolerability, and recovery of ramoplanin following single dose oral administration were investigated in male volunteers. Ramoplanin was administered as an aqueous solution at a dose of 100, 200, 500, or 1000 mg to fasting subjects. Serum samples were obtained prior to drug administration of ramoplanin and 0.5, 1, 2, 3, 6, 9, 12, 24, 48, 72, and 96 hours after treatment. Urine samples were collected prior to administration of ramoplanin and over the periods 0-3, 3-6, 6-12, 12-24, 24-48, 48-72, and 72-96 hours after dosing. Fecal samples were collected prior to dosing and over the periods 0-16 (Day 1), 16-40 (Day 2), 40-64 (Day 3), 64-88 (Day 4), and 88-96 (Day 5) hours after dosing. A microbiological assay employing Bacillis subtilis ATCC 6633 as the test organism was used to determine ramoplanin concentrations in serum, urine, and feces. The limits of quantitation for this assay were 0.02 μg/mL in serum, 0.012 μg/mL in urine, and 3 μg/g in feces. Tolerability was assessed on the basis of clinical signs and symptoms and the results of blood and urine laboratory tests.

[4] = Multiple dose study in healthy male volunteers: absorption and fecal concentrations; format: in vivo, human
Experimental: (§1) Healthy male volunteers were administered 200, 400, or 800 mg ramoplanin twice-a-day, for ten consecutive days. The predetermined dose was reconstituted in 5 mL water per vial, mixed with 50 mL of sweetened, aromatized solution, and immediately administered orally to the subjects.
No absorption from the human gastrointestinal tract was observed.

[5] = tested on: Gram-negative bacteria (enteric bacteria and Bacteroides spp.) or yeast; assay: Multiple dose study: activity on stool microflora, Gram-negative bacteria and yeast; format: in vivo, human; conditions: healthy male volunteers, oral 200, 400, 800 mg B.I.D. 10 days
Experimental: as §1
The antibacterial activity of ramoplanin on the stool microflora was assessed in a subset of the subjects. Microbial concentrations (i.e., the number of organisms per gram of fecal matter) were determined at the following time points: Day-4 (pre-treatment), Days 4 and 10 (treatment), and Days […] and 24 (follow-up). Tolerability and absorption were also investigated.

[6] = tested on: VRE; assay: MIC against VRE, NCCLS broth microdilution; format: cell-based; conditions: all VRE in this study cultured in CAMHB
Experimental: (§2) The efficacy of ramoplanin was tested against recently isolated VRE that are resistant to linezolid and quinupristin/dalfopristin. The culture media containing ramoplanin was supplemented with 0.02% bovine serum albumin (BSA) to prevent ramoplanin binding to the plastic. MIC values were determined in both cation-adjusted Mueller-Hinton broth (CAMHB) and trypticase soy broth (TSB) by the National Committee for Clinical Laboratory Standards (NCCLS) broth microdilution method. Macromolecular biosynthesis experiments were done by following the incorporation of carbon-14-labeled N-acetylglucosamine, acetic acid, amino acids, uridine, and thymidine into peptidoglycan, fatty acid, protein, RNA and DNA, respectively.

[7] = tested on: peptidoglycan synthesis; assay: Macromolecular biosynthesis (carbon-14 precursor incorporation); format: cell-based; conditions: ramoplanin at the MIC
Experimental: as §2

[8] = Storage stability of ramoplanin granules and reconstituted solution; format: physicochemical; conditions: refrigerated conditions
Experimental: Ramoplanin is available as granules for oral solution, provided, for example, in packets containing 400 mg free base of ramoplanin, along with pharmaceutically acceptable excipients (e.g., mannitol, hydroxypropyl methylcellulose, magnesium stearate). The contents of the packet can be reconstituted with approximately 15-30 mL of water, and the resulting solution either consumed directly, or further diluted with water, cranberry juice, apple juice, or 7-Up prior to drinking. After consumption, the drug may be followed with subsequent amounts of these beverages or with food (e.g., cracker, bread). […] The reconstituted ramoplanin aqueous solution has a shelf life of 48 hours when stored at refrigerated conditions.

Ramoplanin
amount excreted in urine ([1]; intravenously treated rats): less than 0.01 % of the administered dose | distribution ([1]; rat): not widely distributed outside the central compartment | volume of distribution at steady state ([1]; rat): 0.75 L/kg | volume of the central compartment ([1]; rat): 0.42 L/kg | time of maximum observed serum concentration ([1]; rat, 5 mg/kg intravenous): 0.083 h | Maximum observed serum concentration ([1]; rat, 1000 mg/kg oral): 2.8 µg/mL | mean absorption time ([1]; rat, 1000 mg/kg oral): 3.4 h | time of maximum observed serum concentration ([1]; rat, 1000 mg/kg oral): 0.5 h | absolute bioavailability (F) ([1]; rat, 1000 mg/kg oral relative to 5 mg/kg intravenous): 0.18% | Terminal elimination half-life ([1]; rat, intravenous dose): 3.5 h | Terminal elimination half-life ([1]; rat, oral dose): 5.9 h | distribution to tissues [2]: not distributed widely to tissues | mean absorption time ([2]; 300 mg/kg oral gelatin capsule): 8.19 ± 3.12 h | absolute bioavailability ([2]; 300 mg/kg oral gelatin capsule vs 5 mg/kg intravenous): less than 1% | subjects with ramoplanin still detectable in feces ([3]; fourth day of study, single oral dose): 17 of 24 | ramoplanin in serum/plasma or urine ([3]; healthy male volunteers, single oral doses up to 1000 mg and multiple oral doses 200, 400, 800 mg B.I.D. 10 days, bioassay and HPLC): not detected | Mean cumulative recovery of ramoplanin in feces ([3]; single oral dose 100 mg): 67.7 % of the administered dose | Mean maximum concentration in feces ([3]; single oral dose 100 mg): 214 µg/g | cumulative recovery of ramoplanin in feces, range ([3]; single oral dose 100 mg): 55.7-84 % of the administered dose | maximum concentration in feces, range ([3]; single oral dose 100 mg): 148 to 278 µg/g | Mean cumulative recovery of ramoplanin in feces ([3]; single oral dose 200 mg): 48.5 % of the administered dose | Mean maximum concentration in feces ([3]; single oral dose 200 mg): 287 µg/g | cumulative recovery of ramoplanin in feces, range ([3]; single oral dose 200 mg): 39.3-56.5 % of the administered dose | maximum concentration in feces, range ([3]; single oral dose 200 mg): 164 to 454 µg/g | Mean cumulative recovery of ramoplanin in feces ([3]; single oral dose 500 mg): 52.8 % of the administered dose | Mean maximum concentration in feces ([3]; single oral dose 500 mg): 1655 µg/g | cumulative recovery of ramoplanin in feces, range ([3]; single oral dose 500 mg): 41.3-79.6 % of the administered dose | maximum concentration in feces, range ([3]; single oral dose 500 mg): 737 to 3316 µg/g | Mean cumulative recovery of ramoplanin in feces ([3]; single oral dose 1000 mg): 46.4 % of the administered dose | Mean maximum concentration in feces ([3]; single oral dose 1000 mg): 1835 µg/g | cumulative recovery of ramoplanin in feces, range ([3]; single oral dose 1000 mg): 39.9-58.4 % of the administered dose | maximum concentration in feces, range ([3]; single oral dose 1000 mg): 1336 to 3154 µg/g | time of maximum ramoplanin concentration and maximum percentage recovery in feces ([3]; single oral dose 100-1000 mg): the day after administration (Day 2) | absorption from the human gastrointestinal tract ([4]; 200, 400 or 800 mg twice-a-day, ten days): No absorption | urine levels of ramoplanin ([4]; Day 1 and 5 and pooled urine up to 72-96 after the last dose): No levels were found in urine | average fecal concentration of ramoplanin ([4]; Day 3, 200 mg twice-a-day): 827 µg/g | average fecal concentration of ramoplanin ([4]; Day 3, 400 mg twice-a-day): 1742 µg/g | average fecal concentration of ramoplanin ([4]; Day 3, 800 mg twice-a-day): 1901 µg/g | average fecal concentration of ramoplanin ([4]; Day 10, 200 mg twice-a-day): 949 µg/g | average fecal concentration of ramoplanin ([4]; Day 10, 400 mg twice-a-day): 1417 µg/g | average fecal concentration of ramoplanin ([4]; Day 10, 800 mg twice-a-day): 2647 µg/g | serum levels of ramoplanin ([4]; Days 1, 5 and 10, hour 0.5-12 after the morning dose): no serum levels of ramoplanin were detected | fecal concentrations post-treatment ([4]; four days post-treatment): remained detectable in some subjects | cumulative recovery in feces ([4]; up to Day 4 post-treatment): 25 % of the administered dose | effect on Gram-negative flora / yeast in stool [5]: not effective | effect on Gram-negative flora / yeast in stool ([5]; listed as ramoplanin): no effect | MIC [6]: 0.125 to 0.25 µg/mL | first macromolecular biosynthetic pathway inhibited [7]: peptidoglycan synthesis | storage stability ([8]; 400 mg granulated powder packets): stable for at least one year | shelf life ([8]; reconstituted ramoplanin aqueous solution): 48 h
